Test systems include A498 renal; HCC-2998 colon; HS 578T breast; LOX IMVI melanoma; MOLT-4 leukemia; NCI-H460 lung; NCI/ADR-RES ovarian; OVCAR-3 ovarian; OVCAR-4 ovarian; SF-268 CNS; SK-MEL-5 melanoma; SK-OV-3 ovarian; SNB-75 CNS; T-47D breast; NCI-H226 lung.
Holding throughout (assay): NCI tumour cell line growth inhibition, 48 h

Data on 10 molecules can be found in PubChem BioAssay (NCI).

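Interpolation was linear, between the two tested concentrations surrounding the appropriate level; five concentrations were tested over 48 hours in 96-well plates. At the TGI there is no net growth.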

As for `C=CCNC1=C2C[C@@H](C)C[C@@H](OC)[C@H](OC(=O)CN(C)C)[C@H](C)/C=C(\C)[C@@H](OC(N)=O)[C@H](OC)/C=C\C=C(/C)C(=O)NC(=CC1=O)C2=O`, the TGI is 19.4 µM in the assay on A498 renal; 0.284 µM with HCC-2998 colon; 47.7 µM in the assay with HS 578T breast; 8.19 µM in the assay on LOX IMVI melanoma; > 41.6 µM in the assay with MOLT-4 leukemia; 15.6 µM with NCI-H460 lung. Also, the TGI is > 92.1 µM with NCI/ADR-RES ovarian; 13.8 µM in the assay with OVCAR-3 ovarian; 26 µM with OVCAR-4 ovarian; 30.5 µM in the assay with SF-268 CNS; 14.6 µM in the assay on SK-MEL-5 melanoma; 20 µM in the assay with SK-OV-3 ovarian. The TGI in the assay on SNB-75 CNS was 0.909 µM; in the assay with T-47D breast, > 42.2 µM.

For the molecule `CC(=O)N1NC(c2ccccc2)=CC(=O)/C1=C/C(=O)c1ccccc1`, the TGI with A498 renal, in the assay with HCC-2998 colon, with HS 578T breast, in the assay with LOX IMVI melanoma, in the assay with MOLT-4 leukemia and in the assay on NCI-H226 lung was > 100 µM each time. In addition, the TGI in the assay on NCI-H460 lung is > 100 µM; in the assay with NCI/ADR-RES ovarian, > 100 µM; in the assay on OVCAR-3 ovarian, > 100 µM; with OVCAR-4 ovarian, > 100 µM; with SF-268 CNS, 99.3 µM; in the assay with SK-MEL-5 melanoma, > 100 µM. Besides, the TGI in the assay on SK-OV-3 ovarian and with T-47D breast was > 100 µM in each case.

For the molecule `COC(=O)/C=C\c1ccc2c(c1)CC1(C2)Cc2ccc(/C=C/C(=O)OC)cc2C1` (configuration not stated), the TGI in the assay on HCC-2998 colon was > 31.6 µM; with HS 578T breast, > 31.6 µM; in the assay with LOX IMVI melanoma, > 31.6 µM; with MOLT-4 leukemia it was > 31.6 µM; in the assay on NCI-H226 lung, > 31.6 µM; in the assay on NCI-H460 lung, > 100 µM. Further, the TGI in the assay on NCI/ADR-RES ovarian is > 31.6 µM; in the assay with OVCAR-3 ovarian it was > 31.6 µM; in the assay on OVCAR-4 ovarian, > 31.6 µM; in the assay with SF-268 CNS it was > 100 µM; in the assay on SK-MEL-5 melanoma it was > 31.6 µM; in the assay on SK-OV-3 ovarian, > 31.6 µM. Also, the figures for the TGI with SNB-75 CNS and in the assay on T-47D breast were > 100 µM and > 31.6 µM, respectively.

As to `COc1cc(-c2c[nH]c3ccccc23)nc(-c2c[nH]c3ccccc23)n1`, the TGI is 6.58 µM in the assay on A498 renal; 13 µM with HCC-2998 colon; 68 µM in the assay on HS 578T breast; 16.5 µM with LOX IMVI melanoma; 15.3 µM in the assay with MOLT-4 leukemia; 12.8 µM in the assay on NCI-H460 lung. The TGI in the assay with NCI/ADR-RES ovarian was determined as 59.6 µM; in the assay on OVCAR-3 ovarian, 19.6 µM; in the assay with OVCAR-4 ovarian, 28.8 µM; in the assay on SF-268 CNS it was 30.7 µM; in the assay on SK-MEL-5 melanoma, 17.9 µM; in the assay with SK-OV-3 ovarian, 22.8 µM. Also, the TGI in the assay on SNB-75 CNS is 17.7 µM; in the assay on T-47D breast, 23.9 µM.

Regarding `Cc1[nH]c2c(C)ccc(C)c2c1CC(=O)O`, the TGI was > 100 µM in the assay with A498 renal; > 100 µM in the assay with HCC-2998 colon; 60.4 µM with HS 578T breast; > 100 µM in the assay on LOX IMVI melanoma; 54.1 µM in the assay with MOLT-4 leukemia; > 100 µM in the assay on NCI-H226 lung. For the same molecule, the TGI in the assay with NCI-H460 lung, with NCI/ADR-RES ovarian, in the assay with OVCAR-3 ovarian, in the assay on OVCAR-4 ovarian, with SF-268 CNS and in the assay with SK-MEL-5 melanoma was > 100 µM in each case. In addition, the TGI in the assay with SK-OV-3 ovarian and with T-47D breast was > 100 µM in each case.

As for `CCOC(=O)CSc1nc(-c2ccc(OC)cc2)c(C#N)c(=O)[nH]1`, the TGI in the assay with A498 renal, in the assay on HCC-2998 colon, in the assay on HS 578T breast, in the assay on MOLT-4 leukemia, in the assay with NCI-H226 lung and with NCI-H460 lung was > 100 µM throughout. Moreover, the TGI in the assay with NCI/ADR-RES ovarian, in the assay on OVCAR-3 ovarian, with OVCAR-4 ovarian, in the assay on SF-268 CNS, in the assay with SK-MEL-5 melanoma and with SK-OV-3 ovarian was > 100 µM throughout. Besides, the TGI with SNB-75 CNS and in the assay on T-47D breast was > 100 µM each time.

With `COC(=O)CCc1ccc2c(c1)CCC2`, the TGI with HCC-2998 colon, with HS 578T breast, in the assay on LOX IMVI melanoma, in the assay with MOLT-4 leukemia, in the assay with NCI-H226 lung and in the assay with NCI-H460 lung was > 100 µM throughout. Also, the TGI in the assay on NCI/ADR-RES ovarian, in the assay with OVCAR-3 ovarian, with OVCAR-4 ovarian, in the assay with SF-268 CNS, with SK-MEL-5 melanoma and with SK-OV-3 ovarian was > 100 µM in each case. Also, the TGI in the assay on SNB-75 CNS and with T-47D breast was > 100 µM throughout.

With `O=C1CC2[C@@H](N3CCCC3)CCC(N1Cc1ccccc1)C2(O)O` (some centres not stated), the TGI in the assay with A498 renal, in the assay with HCC-2998 colon, in the assay with HS 578T breast, in the assay with LOX IMVI melanoma, in the assay on MOLT-4 leukemia and with NCI-H226 lung was > 100 µM each time. The TGI in the assay on NCI-H460 lung, in the assay on NCI/ADR-RES ovarian, in the assay with OVCAR-3 ovarian, with SF-268 CNS, in the assay with SK-MEL-5 melanoma and in the assay with SK-OV-3 ovarian was > 100 µM each time. In the assay with T-47D breast, the TGI was > 100 µM.

`CC(=O)OCC1OC(n2c(C)c(N=Nc3ccc(C)cc3)c(C)c(C#N)c2=S)C(OC(C)=O)C(OC(C)=O)C1OC(C)=O` (configuration not stated): the TGI is > 100 µM with HCC-2998 colon; 74.7 µM in the assay with HS 578T breast; > 100 µM in the assay on LOX IMVI melanoma; > 100 µM in the assay with MOLT-4 leukemia; > 100 µM in the assay on NCI-H460 lung; > 100 µM in the assay with NCI/ADR-RES ovarian. Further, the TGI with OVCAR-3 ovarian, in the assay with OVCAR-4 ovarian, in the assay on SF-268 CNS, in the assay with SK-MEL-5 melanoma, in the assay with SK-OV-3 ovarian and with SNB-75 CNS was > 100 µM throughout. In addition, the TGI with T-47D breast is > 100 µM.

Consider `O=C(OCc1ccccc1)N1CCNCCNCC1`, for which the TGI in the assay on A498 renal, in the assay with HCC-2998 colon, in the assay on HS 578T breast, with LOX IMVI melanoma, in the assay on MOLT-4 leukemia and in the assay with NCI-H226 lung was > 100 µM throughout. Also, the TGI with NCI-H460 lung, with NCI/ADR-RES ovarian, with OVCAR-3 ovarian, in the assay with OVCAR-4 ovarian, with SF-268 CNS and in the assay with SK-MEL-5 melanoma was > 100 µM throughout. In the assay with T-47D breast, the TGI is > 100 µM.
